Test system: T1, alpha-glucosidase (from Bacillus stearothermophilus)
T1 construct: gene maltase
Experiment: pNPG hydrolysis, Lineweaver-Burk plot
Assay type: biochemical, Geobacillus stearothermophilus
Conditions: control without extract; pNPG 0.08-5 mg/mL, 37°C, 20 min; unreliable: Km extrapolated above the tested substrate range
Source text: pNPG hydrolysis, Lineweaver-Burk plot on alpha-glucosidase (from Bacillus stearothermophilus)

O=[N+]([O-])c1ccc(O[C@H]2O[C@H](CO)[C@@H](O)[C@H](O)[C@H]2O)cc1 [p-nitrophenyl glucopyranoside]
Alpha-glucosidase / K m: 17.39 mg/mL
